Reference: patent US20230382924A1, “MODULATORS OF CYSTIC FIBROSIS TRANSMEMBRANE CONDUCTANCE REGULATOR” (VERTEX PHARMACEUTICALS INCORPORATED, priority 2020, published 2023)
Where two headings read alike, the source gives them in different places.

How the values were obtained:
CFTR = CFTR (Homo sapiens, UniProt P13569); test: Membrane Potential Dye, Enteroid Assay A; format: cell-based; conditions: for EC50: read-out: Ent. A EC50
In short: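 Enteroid cells were loaded with methyl oxonol membrane potential dye (plus CaCCinh-A01 and Chicago Sky Blue) for 25 min at room temperature. Chloride transport was started by switching to chloride-free gluconate stimulation solution, with fluorescence read for 15 min. Activity was expressed as % of a triple-combination CFTR modulator control (3 μM, 3 μM, 300 nM acute).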

[1] = from COC[C@@H](N)[C@H](Oc1cc(-c2c(C)cccc2C)nc(NS(=O)(=O)c2cccc(C(=O)O)c2)n1)c1ccc(C(C)(C)C)cc1, amide bond, 13-membered ring, HATU/DIEA, DMF, 162.0 mM, 0.5 h

Sequence of CFTR (P13569 with tags, fused parts or gaps DEL508-508): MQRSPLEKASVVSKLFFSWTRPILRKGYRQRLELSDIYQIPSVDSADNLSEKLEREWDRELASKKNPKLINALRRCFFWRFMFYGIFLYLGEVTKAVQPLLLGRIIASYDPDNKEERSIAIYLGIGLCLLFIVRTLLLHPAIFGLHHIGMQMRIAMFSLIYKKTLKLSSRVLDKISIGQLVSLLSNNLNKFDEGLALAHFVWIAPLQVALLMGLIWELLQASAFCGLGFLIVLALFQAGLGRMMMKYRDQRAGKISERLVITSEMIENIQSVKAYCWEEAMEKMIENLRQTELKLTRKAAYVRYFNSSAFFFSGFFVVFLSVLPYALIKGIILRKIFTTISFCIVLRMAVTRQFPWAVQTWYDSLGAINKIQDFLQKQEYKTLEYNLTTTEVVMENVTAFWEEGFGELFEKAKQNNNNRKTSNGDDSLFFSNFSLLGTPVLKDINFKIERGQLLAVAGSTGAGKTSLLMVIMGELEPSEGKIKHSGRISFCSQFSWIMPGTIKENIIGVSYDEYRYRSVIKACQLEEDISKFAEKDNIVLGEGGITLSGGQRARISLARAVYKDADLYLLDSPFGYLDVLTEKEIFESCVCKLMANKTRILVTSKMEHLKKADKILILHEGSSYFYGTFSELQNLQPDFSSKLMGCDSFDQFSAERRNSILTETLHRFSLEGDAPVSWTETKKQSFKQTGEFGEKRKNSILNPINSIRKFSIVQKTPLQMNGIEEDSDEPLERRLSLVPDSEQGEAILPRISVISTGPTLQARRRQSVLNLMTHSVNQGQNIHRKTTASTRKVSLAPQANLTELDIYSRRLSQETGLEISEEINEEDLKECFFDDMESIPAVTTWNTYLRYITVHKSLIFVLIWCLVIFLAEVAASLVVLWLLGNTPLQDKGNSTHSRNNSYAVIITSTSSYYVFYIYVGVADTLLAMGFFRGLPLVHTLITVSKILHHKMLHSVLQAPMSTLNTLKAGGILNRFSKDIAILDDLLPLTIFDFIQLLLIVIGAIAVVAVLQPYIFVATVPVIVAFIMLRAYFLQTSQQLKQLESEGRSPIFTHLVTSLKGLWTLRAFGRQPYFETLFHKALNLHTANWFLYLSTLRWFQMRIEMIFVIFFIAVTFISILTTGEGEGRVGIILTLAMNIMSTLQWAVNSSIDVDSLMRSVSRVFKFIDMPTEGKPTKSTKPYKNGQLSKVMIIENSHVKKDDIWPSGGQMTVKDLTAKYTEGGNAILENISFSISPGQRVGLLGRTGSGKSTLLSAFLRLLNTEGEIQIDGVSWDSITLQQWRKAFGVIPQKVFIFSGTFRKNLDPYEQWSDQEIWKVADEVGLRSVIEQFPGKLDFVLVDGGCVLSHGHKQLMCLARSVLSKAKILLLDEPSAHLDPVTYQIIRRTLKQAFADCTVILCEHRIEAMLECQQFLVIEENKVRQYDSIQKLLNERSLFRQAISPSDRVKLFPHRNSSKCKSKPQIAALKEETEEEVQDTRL

Compound | Ent. A Max Activity (CFTR; Table 8) | EC50 (CFTR; Table 8) [nM] | Ent. A Max Activity (CFTR; Table 9) | EC50 (CFTR; Table 9) [nM] | further results
Cc1cccc(C)c1-c1cc2nc(n1)NS(=O)(=O)c1cccc(c1)C(=O)NCC(c1ccccc1Cl)O2 (centres unmarked) [Compound 31, 10-(2-Chlorophenyl)-6-(2,6-dimethylphenyl)-2,2-dioxo-9-oxa-2λ^6-thia-3,5,12,19-tetrazatricyclo[12.3.1.14,8]nonadeca-1(18),4(19),5,7,14,16-hexaen-13-one] | +++ (+++ is >60%) | < 1000 |  |  | ring closure, yield after HPLC (from Cc1cccc(C)c1-c1cc(OC(CN)c2ccccc2Cl)nc(NS(=O)(=O)c2cccc(C(=O)O)c2)n1, amide bond, 13-membered ring, HATU/DIEA, DMF, 42.4 mM, 25.0 °C, 1.0 h): 49%
Cc1cccc(C)c1-c1cc2nc(n1)NS(=O)(=O)c1cccc(c1)C(=O)NCCC(c1ccc(C(C)(C)C)cc1)O2 (centres unmarked) [Compound 55, 10-(4-tert-Butylphenyl)-6-(2,6-dimethylphenyl)-2,2-dioxo-9-oxa-2λ^6-thia-3,5,13,20-tetrazatricyclo[13.3.1.14,8]icosa-1(19),4(20),5,7,15,17-hexaen-14-one] |  |  | ++ (++ is 30-60%) | 1000 to 3000 | ring closure, yield after HPLC (from Cc1cccc(C)c1-c1cc(OC(CCN)c2ccc(C(C)(C)C)cc2)nc(NS(=O)(=O)c2cccc(C(=O)O)c2)n1, amide bond, 14-membered ring, HATU/TEA, DMF, 204.0 mM, 50.0 °C, 0.25 h): 18%
Cc1cccc(C)c1-c1cc2nc(n1)NS(=O)(=O)N1CCCC(C1)C(=O)N[C@H](CC1CCCCC1)CO2 (stereo partly drawn) [Compound 73, (11R)-11-(Cyclohexylmethyl)-6-(2,6-dimethylphenyl)-2,2-dioxo-9-oxa-2λ^6-thia-1,3,5,12,19-pentazatricyclo[12.3.1.14,8]nonadeca-4(19),5,7-trien-13-one] | + (+ is <30%) |  |  |  | ring closure, yield after HPLC (from Cc1cccc(C)c1-c1cc(OC[C@H](N)CC2CCCCC2)nc(NS(=O)(=O)N2CCCC(C(=O)O)C2)n1, amide bond, 13-membered ring, HATU/DIEA, DMF, 19.2 mM, 3.0 h): 19%
Cc1cccc(C)c1-c1cc2nc(n1)NS(=O)(=O)c1cccc(c1)C(=O)N[C@@H](C)[C@@H](c1ccc(C(C)(C)C)cc1)O2 [Compound 43, (10R,11S)-10-(4-tert-butylphenyl)-6-(2,6-dimethylphenyl)-11-methyl-2,2-dioxo-9-oxa-2λ^6-thia-3,5,12,19-tetrazatricyclo[12.3.1.14,8]nonadeca-1(18),4(19),5,7,14,16-hexaen-13-one] |  |  | +++ (+++ is >60%) | < 1000 | ring closure, yield after HPLC (from Cc1cccc(C)c1-c1cc(O[C@H](c2ccc(C(C)(C)C)cc2)[C@H](C)N)nc(NS(=O)(=O)c2cccc(C(=O)O)c2)n1, amide bond, 13-membered ring, HATU/NaOtBu, DMF/THF, 53.4 mM, 25.0 °C, 0.1 h, 2 steps): 13%
Cc1cccc(C)c1-c1cc2nc(n1)NS(=O)(=O)c1cccc(c1)C(=O)NCC(C(=O)NCCC(C)(C)C)O2 (centres unmarked) [Compound 30, N-(3,3-Dimethylbutyl)-6-(2,6-dimethylphenyl)-2,2,13-trioxo-9-oxa-2λ^6-thia-3,5,12,19-tetrazatricyclo[12.3.1.14,8]nonadeca-1(18),4(19),5,7,14,16-hexaene-10-carboxamide] |  | 3000 to 30000 |  |  | ring closure, yield after HPLC (from Cc1cccc(C)c1-c1cc(OC(CN)C(=O)NCCC(C)(C)C)nc(NS(=O)(=O)c2cccc(C(=O)O)c2)n1, amide bond, 13-membered ring, HATU/DIEA, DMF, 30.2 mM, 25.0 °C, 0.25 h): 28%
COC[C@H]1NC(=O)c2cccc(c2)S(=O)(=O)Nc2nc(cc(-c3c(C)cccc3C)n2)OC1c1ccc(C(C)(C)C)cc1 (single isomer, unassigned) [Compound 45] |  |  | +++ (+++ is >60%) | < 1000 | ring closure, yield after HPLC (from COC[C@@H](N)[C@H](Oc1cc(-c2c(C)cccc2C)nc(NS(=O)(=O)c2cccc(C(=O)O)c2)n1)c1ccc(C(C)(C)C)cc1, amide bond, 13-membered ring, HATU/DIEA, DMF, 161.6 mM, 25.0 °C, 0.5 h): 8%; ring closure, yield after HPLC [1]: 10%
Cc1cccc(C)c1-c1cc2nc(n1)NS(=O)(=O)c1cccc(c1)C(=O)N[C@H](C)[C@@H](c1ccc(C(F)(F)F)cc1)O2 [Compound 41, (10R,11R)-6-(2,6-Dimethylphenyl)-11-methyl-2,2-dioxo-10-[4-(trifluoromethyl)phenyl]-9-oxa-2λ^6-thia-3,5,12,19-tetrazatricyclo[12.3.1.14,8]nonadeca-1(18),4(19),5,7,14,16-hexaen-13-one] |  |  | ++ (++ is 30-60%) | < 1000 | ring closure, yield after HPLC (from Cc1cccc(C)c1-c1cc(O[C@H](c2ccc(C(F)(F)F)cc2)[C@@H](C)N)nc(NS(=O)(=O)c2cccc(C(=O)O)c2)n1, amide bond, 13-membered ring, HATU/NaOtBu, DMF/THF, 96.3 mM, 25.0 °C, 0.33 h, 2 steps): 10%
Cc1cccc(C)c1-c1cc2nc(n1)NS(=O)(=O)c1cccc(c1)C(=O)NCC(c1cccc(Cl)c1)O2 (centres unmarked) [Compound 32, 10-(3-Chlorophenyl)-6-(2,6-dimethylphenyl)-2,2-dioxo-9-oxa-2λ^6-thia-3,5,12,19-tetrazatricyclo[12.3.1.14,8]nonadeca-1(18),4(19),5,7,14,16-hexaen-13-one] | +++ (+++ is >60%) | < 1000 |  |  | ring closure, yield after HPLC (from Cc1cccc(C)c1-c1cc(OC(CN)c2cccc(Cl)c2)nc(NS(=O)(=O)c2cccc(C(=O)O)c2)n1, amide bond, 13-membered ring, HATU/DIEA, DMF, 41.6 mM, 25.0 °C, 1.0 h): 27%
Cc1cccc(COCc2ccccc2)c1-c1cc2nc(n1)NS(=O)(=O)c1cccc(c1)C(=O)N[C@H](CC(C)C)CO2 [Compound 106, (11R)-6-[2-(benzyloxymethyl)-6-methyl-phenyl]-11-isobutyl-2,2-dioxo-9-oxa-2λ^6-thia-3,5,12,19-tetrazatricyclo[12.3.1.14,8]nonadeca-1(18),4(19),5,7,14,16-hexaen-13-one] |  |  | +++ (+++ is >60%) | < 1000 | ring closure, yield after HPLC (from Cc1cccc(COCc2ccccc2)c1-c1cc(OC[C@H](N)CC(C)C)nc(NS(=O)(=O)c2cccc(C(=O)O)c2)n1, amide bond, 13-membered ring, HATU/DIEA, DMF, 48.7 mM, 25.0 °C, 0.5 h): 30%
Cc1cccc(C)c1-c1cc2nc(n1)NS(=O)(=O)c1cccc(c1)C(=O)NCC(c1ccc(C(C)(C)C)cc1)O2 (centres unmarked) [Compound 3, 10-(4-tert-butylphenyl)-6-(2,6-dimethylphenyl)-2,2-dioxo-9-oxa-2λ^6-thia-3,5,12,19-tetrazatricyclo[12.3.1.14,8]nonadeca-1(18),4(19),5,7,14,16-hexaen-13-one] | +++ (+++ is >60%) | < 1000 |  |  | ring closure, yield after HPLC (from Cc1cccc(C)c1-c1cc(Cl)nc(NS(=O)(=O)c2cccc(C(=O)NCC(O)c3ccc(C(C)(C)C)cc3)c2)n1, snar bond, 13-membered ring, NaH, NMP, 8.5 mM, 90.0 °C, 2.5 h): 12%
Cc1cccc(C)c1-c1cc2nc(n1)NS(=O)(=O)c1cccc(c1)C(=O)NCC(C1CCOCC1)O2 (centres unmarked) [Compound 34, 6-(2,6-Dimethylphenyl)-2,2-dioxo-10-tetrahydropyran-4-yl-9-oxa-2λ^6-thia-3,5,12,19-tetrazatricyclo[12.3.1.14,8]nonadeca-1(18),4(19),5,7,14,16-hexaen-13-one] | + (+ is <30%) |  |  |  | ring closure, yield after HPLC (from Cc1cccc(C)c1-c1cc(OC(CN)C2CCOCC2)nc(NS(=O)(=O)c2cccc(C(=O)O)c2)n1, amide bond, 13-membered ring, HATU/DIEA, DMF, 66.2 mM, 25.0 °C, 0.25 h): 25%
Cc1cccc(C)c1-c1cc2nc(n1)NS(=O)(=O)c1cccc(c1)C(=O)N[C@H](C)[C@H](c1ccc(C(F)(F)F)cc1)O2 [Compound 42, (10S,11R)-6-(2,6-dimethylphenyl)-11-methyl-2,2-dioxo-10-[4-(trifluoromethyl)phenyl]-9-oxa-2λ^6-thia-3,5,12,19-tetrazatricyclo[12.3.1.14,8]nonadeca-1(18),4(19),5,7,14,16-hexaen-13-one] |  |  | ++ (++ is 30-60%) | < 1000 | ring closure, yield after HPLC (from Cc1cccc(C)c1-c1cc(O[C@@H](c2ccc(C(F)(F)F)cc2)[C@@H](C)N)nc(NS(=O)(=O)c2cccc(C(=O)O)c2)n1, amide bond, 13-membered ring, HATU/NaOtBu, DMF/THF, 96.3 mM, 25.0 °C, 0.33 h, 2 steps): 4%
Cc1cccc(C)c1-c1cc2nc(n1)NS(=O)(=O)c1cccc(c1)C(=O)NC[C@H](CO[Si](c1ccccc1)(c1ccccc1)C(C)(C)C)O2 |  |  |  |  | ring closure, yield after HPLC (from Cc1cccc(C)c1-c1cc(O[C@H](CN)CO[Si](c2ccccc2)(c2ccccc2)C(C)(C)C)nc(NS(=O)(=O)c2cccc(C(=O)O)c2)n1, amide bond, 13-membered ring, HATU/DIEA, DMF, 30.8 mM, 25.0 °C, 1.0 h, 2 steps): 98%
COC[C@H]1NC(=O)c2cccc(c2)S(=O)(=O)Nc2nc(cc(-c3c(C)cccc3C)n2)O[C@@H]1c1ccc(C(C)(C)C)cc1 (single isomer, unassigned) [Compound 44] |  |  | +++ (+++ is >60%) | < 1000 | ring closure, yield after HPLC [1]: 8%
Cc1cccc(C)c1-c1cc2nc(n1)NS(=O)(=O)c1cccc(c1)C(=O)NCC(c1ccc(OCC3(C(F)(F)F)CC3)cc1)O2 (centres unmarked) [Compound 33, 6-(2,6-Dimethylphenyl)-2,2-dioxo-10-[4-[[1-(trifluoromethyl)cyclopropyl]methoxy]phenyl]-9-oxa-2λ^6-thia-3,5,12,19-tetrazatricyclo[12.3.1.14,8]nonadeca-1(18),4(19),5,7,14,16-hexaen-13-one] | +++ (+++ is >60%) | < 1000 |  |  | ring closure, yield after HPLC (from Cc1cccc(C)c1-c1cc(OC(CN)c2ccc(OCC3(C(F)(F)F)CC3)cc2)nc(NS(=O)(=O)c2cccc(C(=O)O)c2)n1, amide bond, 13-membered ring, HATU/DIEA, DMF, 48.7 mM, 25.0 °C, 72.0 h): 10%
